{"source": "patent US20220281848A1", "about": "“PYRAZOLE-SUBSTITUTED PYRROLIDINONES AS HERBICIDES” (FMC Corporation, priority 2019, published 2022)", "system": "plants", "test": "Test D pre-emergence, other plants of Tables D1 and D3", "format": "in vivo", "settings": "for damage to plant, ALOMY / damage to plant, AVEFA / damage to plant, BEAVA / damage to plant, BROTE / damage to plant, BRSNN / damage to plant, CHEAL / damage to plant, GALAP / damage to plant, HORVW / damage to plant, KCHSC / damage to plant, LOLPE / damage to plant, POAAN / damage to plant, POLCO / damage to plant, SINAR / damage to plant, STEME / damage to plant, VERPE: pre-emergence, 100=total damage, 0=no damage", "summary_of_the_method": "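Seeds treated with herbicide safener; sown in soil; glasshouse, 16 h light, 65% humidity. Sprayed day 1 (pre) or ~day 12 (post). Spray in 0.2% v/v adjuvant. Scored 0–100 damage: 20 DAA pre, 15 d post.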"}
{"smiles": "CN1CC(c2cc(C(F)(F)F)n(C)n2)C(C(=O)Nc2ccccc2F)C1=O", "note": "(racemic) [Compound 9]", "values": [{"measurement": "damage to plant (100=total damage to plant; 0=no damage to plant), SORVU", "setting": "SORVU, preemergent, rate 500, 20 DAA", "value": 0}, {"measurement": "damage to plant, ALOMY", "setting": "rate 15, 20 DAA", "value": 0}, {"measurement": "damage to plant, AVEFA", "setting": "rate 15, 20 DAA", "value": 0}, {"measurement": "damage to plant, BEAVA", "setting": "rate 15, 20 DAA", "value": 0}, {"measurement": "damage to plant, BROTE", "setting": "rate 15, 20 DAA", "value": 0}, {"measurement": "damage to plant, BRSNN", "setting": "rate 15, 20 DAA", "value": 0}, {"measurement": "damage to plant, CHEAL", "setting": "rate 15, 20 DAA", "value": 0}, {"measurement": "damage to plant, GALAP", "setting": "rate 15, 20 DAA", "value": 0}, {"measurement": "damage to plant, HORVW", "setting": "rate 15, 20 DAA", "value": 0}, {"measurement": "damage to plant, KCHSC", "setting": "rate 15, 20 DAA", "value": 0}, {"measurement": "damage to plant, LOLPE", "setting": "rate 15, 20 DAA", "value": 0}, {"measurement": "damage to plant, POAAN", "setting": "rate 15, 20 DAA", "value": 0}, {"measurement": "damage to plant, POLCO", "setting": "rate 15, 20 DAA", "value": 0}, {"measurement": "damage to plant, SINAR", "setting": "rate 15, 20 DAA", "value": 0}, {"measurement": "damage to plant, STEME", "setting": "rate 15, 20 DAA", "value": 0}, {"measurement": "damage to plant, VERPE", "setting": "rate 15, 20 DAA", "value": 0}, {"measurement": "damage to plant, ALOMY", "setting": "rate 30, 20 DAA", "value": 0}, {"measurement": "damage to plant, AVEFA", "setting": "rate 30, 20 DAA", "value": 0}, {"measurement": "damage to plant, BEAVA", "setting": "rate 30, 20 DAA", "value": 0}, {"measurement": "damage to plant, BROTE", "setting": "rate 30, 20 DAA", "value": 0}, {"measurement": "damage to plant, BRSNN", "setting": "rate 30, 20 DAA", "value": 0}, {"measurement": "damage to plant, CHEAL", "setting": "rate 30, 20 DAA", "value": 0}, {"measurement": "damage to plant, GALAP", "setting": "rate 30, 20 DAA", "value": 0}, {"measurement": "damage to plant, HORVW", "setting": "rate 30, 20 DAA", "value": 0}, {"measurement": "damage to plant, KCHSC", "setting": "rate 30, 20 DAA", "value": 0}, {"measurement": "damage to plant, LOLPE", "setting": "rate 30, 20 DAA", "value": 0}, {"measurement": "damage to plant, POAAN", "setting": "rate 30, 20 DAA", "value": 0}, {"measurement": "damage to plant, POLCO", "setting": "rate 30, 20 DAA", "value": 0}, {"measurement": "damage to plant, SINAR", "setting": "rate 30, 20 DAA", "value": 0}, {"measurement": "damage to plant, STEME", "setting": "rate 30, 20 DAA", "value": 0}, {"measurement": "damage to plant, VERPE", "setting": "rate 30, 20 DAA", "value": 0}, {"measurement": "damage to plant, ALOMY", "setting": "rate 60, 20 DAA", "value": 0}, {"measurement": "damage to plant, AVEFA", "setting": "rate 60, 20 DAA", "value": 0}, {"measurement": "damage to plant, BEAVA", "setting": "rate 60, 20 DAA", "value": 0}, {"measurement": "damage to plant, BROTE", "setting": "rate 60, 20 DAA", "value": 0}, {"measurement": "damage to plant, BRSNN", "setting": "rate 60, 20 DAA", "value": 0}, {"measurement": "damage to plant, CHEAL", "setting": "rate 60, 20 DAA", "value": 0}, {"measurement": "damage to plant, GALAP", "setting": "rate 60, 20 DAA", "value": 0}, {"measurement": "damage to plant, HORVW", "setting": "rate 60, 20 DAA", "value": 0}, {"measurement": "damage to plant, KCHSC", "setting": "rate 60, 20 DAA", "value": 0}, {"measurement": "damage to plant, LOLPE", "setting": "rate 60, 20 DAA", "value": 0}, {"measurement": "damage to plant, POAAN", "setting": "rate 60, 20 DAA", "value": 0}, {"measurement": "damage to plant, POLCO", "setting": "rate 60, 20 DAA", "value": 0}, {"measurement": "damage to plant, SINAR", "setting": "rate 60, 20 DAA", "value": 0}, {"measurement": "damage to plant, STEME", "setting": "rate 60, 20 DAA", "value": 0}, {"measurement": "damage to plant, VERPE", "setting": "rate 60, 20 DAA", "value": 0}, {"measurement": "damage to plant, ALOMY", "setting": "rate 130, 20 DAA", "value": 0}, {"measurement": "damage to plant, AVEFA", "setting": "rate 130, 20 DAA", "value": 0}, {"measurement": "damage to plant, BEAVA", "setting": "rate 130, 20 DAA", "value": 0}, {"measurement": "damage to plant, BROTE", "setting": "rate 130, 20 DAA", "value": 0}, {"measurement": "damage to plant, BRSNN", "setting": "rate 130, 20 DAA", "value": 0}, {"measurement": "damage to plant, CHEAL", "setting": "rate 130, 20 DAA", "value": 0}, {"measurement": "damage to plant, GALAP", "setting": "rate 130, 20 DAA", "value": 0}, {"measurement": "damage to plant, HORVW", "setting": "rate 130, 20 DAA", "value": 0}, {"measurement": "damage to plant, KCHSC", "setting": "rate 130, 20 DAA", "value": 0}, {"measurement": "damage to plant, LOLPE", "setting": "rate 130, 20 DAA", "value": 0}, {"measurement": "damage to plant, POAAN", "setting": "rate 130, 20 DAA", "value": 10}, {"measurement": "damage to plant, POLCO", "setting": "rate 130, 20 DAA", "value": 0}, {"measurement": "damage to plant, SINAR", "setting": "rate 130, 20 DAA", "value": 0}, {"measurement": "damage to plant, STEME", "setting": "rate 130, 20 DAA", "value": 0}, {"measurement": "damage to plant, VERPE", "setting": "rate 130, 20 DAA", "value": 0}, {"measurement": "damage to plant, ALOMY", "setting": "rate 250, 20 DAA", "value": 0}, {"measurement": "damage to plant, AVEFA", "setting": "rate 250, 20 DAA", "value": 10}, {"measurement": "damage to plant, BEAVA", "setting": "rate 250, 20 DAA", "value": 0}, {"measurement": "damage to plant, BROTE", "setting": "rate 250, 20 DAA", "value": 0}, {"measurement": "damage to plant, BRSNN", "setting": "rate 250, 20 DAA", "value": 0}, {"measurement": "damage to plant, CHEAL", "setting": "rate 250, 20 DAA", "value": 0}, {"measurement": "damage to plant, GALAP", "setting": "rate 250, 20 DAA", "value": 0}, {"measurement": "damage to plant, HORVW", "setting": "rate 250, 20 DAA", "value": 0}, {"measurement": "damage to plant, KCHSC", "setting": "rate 250, 20 DAA", "value": 0}, {"measurement": "damage to plant, LOLPE", "setting": "rate 250, 20 DAA", "value": 30}, {"measurement": "damage to plant, POAAN", "setting": "rate 250, 20 DAA", "value": 10}, {"measurement": "damage to plant, POLCO", "setting": "rate 250, 20 DAA", "value": 0}, {"measurement": "damage to plant, SINAR", "setting": "rate 250, 20 DAA", "value": 0}, {"measurement": "damage to plant, STEME", "setting": "rate 250, 20 DAA", "value": 10}, {"measurement": "damage to plant, VERPE", "setting": "rate 250, 20 DAA", "value": 0}, {"measurement": "damage to plant, ALOMY", "setting": "rate 500, 20 DAA", "value": 0}, {"measurement": "damage to plant, AVEFA", "setting": "rate 500, 20 DAA", "value": 20}, {"measurement": "damage to plant, BEAVA", "setting": "rate 500, 20 DAA", "value": 0}, {"measurement": "damage to plant, BROTE", "setting": "rate 500, 20 DAA", "value": 0}, {"measurement": "damage to plant, BRSNN", "setting": "rate 500, 20 DAA", "value": 0}, {"measurement": "damage to plant, CHEAL", "setting": "rate 500, 20 DAA", "value": 0}, {"measurement": "damage to plant, GALAP", "setting": "rate 500, 20 DAA", "value": 10}, {"measurement": "damage to plant, HORVW", "setting": "rate 500, 20 DAA", "value": 0}, {"measurement": "damage to plant, KCHSC", "setting": "rate 500, 20 DAA", "value": 0}, {"measurement": "damage to plant, LOLPE", "setting": "rate 500, 20 DAA", "value": 20}, {"measurement": "damage to plant, POAAN", "setting": "rate 500, 20 DAA", "value": 50}, {"measurement": "damage to plant, POLCO", "setting": "rate 500, 20 DAA", "value": 0}, {"measurement": "damage to plant, SINAR", "setting": "rate 500, 20 DAA", "value": 0}, {"measurement": "damage to plant, STEME", "setting": "rate 500, 20 DAA", "value": 80}, {"measurement": "damage to plant, VERPE", "setting": "rate 500, 20 DAA", "value": 0}]}
